Experimental data: the supplement of paper PMC11061612

Tests used:
Experiment in all cases: combination Emax (second highest fraction inhibited in the dose matrix, 72 h); higher = more inhibition; extreme values may be limits of the assay
[1] = test system: ME-180 (Cervical Carcinoma)
How it was run: (§1)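 Bliss excess equals the observed combination effect minus the expected value EA + EB − EA·EB, where EA and EB are the effects of each agent alone. Combination Emax is the second-highest inhibition within the matrix. Inhibition was scaled from CellTiter-Glo 2.0 luminescence, with 0 set by vehicle wells and 1 by blank wells, after 72 hours of two-drug dosing of cells plated in 1536-well plates.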

[2] = test system: MV-4-11 (Acute Myeloid Leukemia)
How it was run: as §1

COLO-679 (Melanoma) = test system: COLO-679 (Melanoma)
How it was run: as §1

[3] = test system: KGN (Other Solid Carcinomas)
How it was run: as §1

[4] = test system: SK-LU-1 (Lung Adenocarcinoma)
How it was run: as §1

[5] = test system: A4-Fuk (B-Lymphoblastic Leukemia)
How it was run: as §1

[6] = test system: SW872 (Other Solid Carcinomas)
How it was run: as §1

[7] = test system: SNU-387 (Hepatocellular Carcinoma)
How it was run: as §1

[8] = test system: MDA-MB-453 (Breast Carcinoma)
How it was run: as §1

[9] = test system: MOLT-4 (T-Lymphoblastic Leukemia)
How it was run: as §1

[10] = test system: HAL-01 (B-Lymphoblastic Leukemia)
How it was run: as §1

| SMILES | combination Emax [1] | combination Emax [2] | combination Emax (COLO-679 (Melanoma)) | combination Emax [3] | combination Emax [4] | combination Emax [5] | combination Emax [6] | combination Emax [7] | combination Emax [8] | combination Emax [9] | combination Emax [10] |
| --- | --- | --- | --- | --- | --- | --- | --- | --- | --- | --- | --- |
| C=CCn1c(=O)c2cnc(Nc3ccc(N4CCN(C)CC4)cc3)nc2n1-c1cccc(C(C)(C)O)n1 [AZD1775] + CCc1c2c(nc3ccc(O)cc13)-c1cc3c(c(=O)n1C2)COC(=O)[C@]3(O)CC [SN-38] (first compound max 1 µM, partner max 0.3 µM) | 0.973 | 0.999 | 0.632 | 0.833 | 0.645 | 1 | 0.933 | 0.497 | 0.696 | 1 | 1 |
| C=CCn1c(=O)c2cnc(Nc3ccc(N4CCN(C)CC4)cc3)nc2n1-c1cccc(C(C)(C)O)n1 [AZD1775] + Nc1ccn([C@@H]2O[C@H](CO)[C@@H](O)C2(F)F)c(=O)n1 [Gemcitabine] (first compound max 1 µM, partner max 0.3 µM) | 0.94 | 1 | 0.76 | 0.892 | 0.457 | 0.965 | 0.825 | 0.552 | 0.539 | 1 | 1 |
| CN(CCO)CC[C@H](CSc1ccccc1)Nc1ccc(S(=O)(=O)NC(=O)c2ccc(N3CCC([C@@H](O)c4ccccc4-c4ccc(Cl)cc4)CC3)cc2)cc1S(=O)(=O)C(F)(F)F [AZD4320] + CS(=O)(=O)CCNCc1ccc(-c2ccc3ncnc(Nc4ccc(OCc5cccc(F)c5)c(Cl)c4)c3c2)o1 [Lapatinib] (first compound max 1 µM, 7x7, partner max 10 µM) | 0.7 | 1 | 0.308 | 0.494 | 0.47 | 0.931 | 0.198 | 0.939 | 0.548 | 1 | 1 |
| Cc1c2c(nn1C)CSCc1cc(n(C)n1)CSc1cc(c3ccccc3c1)OCCCc1c(C(=O)O)n(C)c3c-2c(Cl)ccc13 [AZD5991] + CC(=O)O[C@H]1C(=O)[C@@]2(C)[C@H]([C@H](OC(=O)c3ccccc3)[C@]3(O)C[C@H](OC(=O)[C@H](O)[C@@H](NC(=O)c4ccccc4)c4ccccc4)C(C)=C1C3(C)C)[C@]1(OC(C)=O)CO[C@@H]1C[C@@H]2O [Paclitaxel] (first compound max 1 µM, 7x7, partner max 3 µM) | 0.7 | 1 | 0.565 | 0.916 | 0.39 | 1 | 0.869 | 0.913 | 0.92 | 0.991 | 0.99 |
| Cc1c2c(nn1C)CSCc1cc(n(C)n1)CSc1cc(c3ccccc3c1)OCCCc1c(C(=O)O)n(C)c3c-2c(Cl)ccc13 [AZD5991] + CS(=O)(=O)CCNCc1ccc(-c2ccc3ncnc(Nc4ccc(OCc5cccc(F)c5)c(Cl)c4)c3c2)o1 [Lapatinib] (first compound max 1 µM, 7x7, partner max 10 µM) | 0.492 | 1 | 0.188 | 0.454 | 0.229 | 1 | 0.32 | 0.459 | 0.527 | 0.604 | 0.965 |
| Cc1c2c(nn1C)CSCc1cc(n(C)n1)CSc1cc(c3ccccc3c1)OCCCc1c(C(=O)O)n(C)c3c-2c(Cl)ccc13 [AZD5991] + Nc1ccn([C@@H]2O[C@H](CO)[C@@H](O)C2(F)F)c(=O)n1 [Gemcitabine] (first compound max 1 µM, 7x7, partner max 0.3 µM) | 0.754 | 1 | 0.782 | 0.9 | 0.19 | 1 | 0.811 | 0.565 | 0.731 | 0.992 | 1 |
| C[C@@H]1COCCN1c1cc(C2([S@](C)(=N)=O)CC2)nc(-c2ccnc3[nH]ccc23)n1 [AZD6738] + C1CC(C1)(C(=O)[O-])C(=O)[O-].N.N.[Pt+2] [Carboplatin] (first compound max 10 µM, 7x7, partner max 10 µM) | 0.663 | 0.974 | 0.625 | 0.79 | 0.497 | 0.823 | 0.456 | 0.289 | 0.66 | 0.984 | 0.963 |
| C[C@@H]1COCCN1c1cc(C2([S@](C)(=N)=O)CC2)nc(-c2ccnc3[nH]ccc23)n1 [AZD6738] + Nc1ccn([C@@H]2O[C@H](CO)[C@@H](O)C2(F)F)c(=O)n1 [Gemcitabine] (first compound max 10 µM, 7x7, partner max 0.3 µM) | 0.913 | 1 | 0.82 | 0.969 | 0.415 | 0.962 | 0.907 | 0.718 | 0.678 | 1 | 1 |
| C[C@@H](Nc1cc(F)cc(F)c1)c1cc(C(=O)N(C)C)cc2c(=O)cc(N3CCOCC3)oc12 [AZD8186] + C1CN(CCC1(C(=O)N[C@@H](CCO)C2=CC=C(C=C2)Cl)N)C3=NC=NC4=C3C=CN4 [AZD5363] (first compound max 10 µM, 7x7, partner max 10 µM) | 0.579 | 0.731 | 0.273 | 0.556 | 0.303 | 0.76 | 0.427 | 0.472 | 0.573 | 0.437 | 0.623 |
| C[C@@H](Nc1cc(F)cc(F)c1)c1cc(C(=O)N(C)C)cc2c(=O)cc(N3CCOCC3)oc12 [AZD8186] + CC(=O)c1c(C)c2cnc(Nc3ccc(N4CCNCC4)cn3)nc2n(C2CCCC2)c1=O [Palbociclib] (first compound max 10 µM, 7x7, partner max 10 µM) | 0.391 | 0.859 | 0.269 | 0.798 | 0.434 | 0.706 | 0.359 | 0.614 | 0.578 | 0.661 | 0.793 |
| C[C@@H](Oc1cc(-c2cnn(C3CCNCC3)c2)cnc1N)c1c(Cl)ccc(F)c1Cl [Crizotinib] + CC1=C(C(=CC=C1)Cl)NC(=O)C2=CN=C(S2)NC3=CC(=NC(=N3)C)N4CCN(CC4)CCO [Dasatinib] (first compound max 10 µM, 7x7, partner max 2 µM) | 0.644 | 0.985 | 0.297 | 0.978 | 0.479 | 0.922 | 0.615 | 0.743 | 0.214 | 0.826 | 0.961 |
| C[C@@H](Oc1cc(-c2cnn(C3CCNCC3)c2)cnc1N)c1c(Cl)ccc(F)c1Cl [Crizotinib] + Cn1cnc2c(F)c(Nc3ccc(Br)cc3Cl)c(C(=O)NOCCO)cc21 [Selumetinib] (first compound max 10 µM, 7x7, partner max 10 µM) | 0.269 | 1 | 0.798 | 0.816 | 0.34 | 0.942 | 0.338 | 0.89 | 0.15 | 0.815 | 0.991 |
| CS(=O)(=O)CCNCc1ccc(-c2ccc3ncnc(Nc4ccc(OCc5cccc(F)c5)c(Cl)c4)c3c2)o1 [Lapatinib] + Cn1cnc2c(F)c(Nc3ccc(Br)cc3Cl)c(C(=O)NOCCO)cc21 [Selumetinib] (first compound max 10 µM, 7x7, partner max 10 µM) | 0.476 | 0.642 | 0.749 | 0.535 | 0.377 | 0.979 | 0.25 | 0.62 | 0.389 | 0.501 | 0.516 |
| O=C(c1cc(Cc2n[nH]c(=O)c3ccccc23)ccc1F)N1CCN(C(=O)C2CC2)CC1 [Olaparib] + CC1(C)CCC(CN2CCN(c3ccc(C(=O)NS(=O)(=O)c4ccc(NCC5CCOCC5)c([N+](=O)[O-])c4)c(Oc4cnc5[nH]ccc5c4)c3)CC2)=C(c2ccc(Cl)cc2)C1 [Venetoclax] (first compound max 10 µM, 7x7, partner max 1 µM) | 0.14 | 1 | 0.0175 | 0.292 | 0.2 | 0.301 | 0.141 | 0.256 | 0.104 | 0.7 | 0.926 |
| O=C(c1cc(Cc2n[nH]c(=O)c3ccccc23)ccc1F)N1CCN(C(=O)C2CC2)CC1 [Olaparib] + CN(CC[C@H](CSC1=CC=CC=C1)NC2=C(C=C(C=C2)S(=O)(=O)NC(=O)C3=CC=C(C=C3)N4CCC(CC4)[C@H](C5=CC=CC=C5C6=CC=C(C=C6)Cl)O)S(=O)(=O)C(F)(F)F)CCO [AZD4320] (first compound max 10 µM, 7x7, partner max 1 µM) | 0.18 | 1 | 0.0175 | 0.298 | 0.48 | 0.0633 | 0.133 | 0.304 | 0.224 | 0.977 | 0.65 |
| O=C(c1cc(Cc2n[nH]c(=O)c3ccccc23)ccc1F)N1CCN(C(=O)C2CC2)CC1 [Olaparib] + COc1nnc2ccc(N3CCC(c4ccc(OCCN5CCN(C)C(=O)[C@H]5C)cc4)CC3)nn12 [AZD5153] (first compound max 10 µM, 7x7, partner max 1 µM) | 0.424 | 1 | 0.321 | 0.712 | 0.332 | 0.876 | 0.568 | 0.419 | 0.664 | 0.591 | 0.801 |
| O=C(c1cc(Cc2n[nH]c(=O)c3ccccc23)ccc1F)N1CCN(C(=O)C2CC2)CC1 [Olaparib] + Cc1c2c(nn1C)CSCc1cc(n(C)n1)CSc1cc(c3ccccc3c1)OCCCc1c(C(=O)O)n(C)c3c-2c(Cl)ccc13 [AZD5991] (first compound max 10 µM, 7x7, partner max 1 µM) | 0.1 | 1 | 0.119 | 0.162 | 0.216 | 1 | 0.157 | 0.427 | 0.341 | 0.878 | 0.269 |
| Cc1nc(-c2cn3c(n2)-c2ccc(-c4cnn(C(C)(C)C(N)=O)c4)cc2OCC3)n(C(C)C)n1 [Taselisib] + O=C(Nc1ccc2[nH]nc(-c3ccncc3)c2c1)[C@@H]1CCN(CC(=O)N2CCN(c3ccc(-c4ncccn4)cc3)CC2)C1 [SCH772984] (first compound max 10 µM, 7x7, partner max 5 µM) | 0.732 | 0.905 | 0.851 | 0.816 | 0.516 | 1 | 0.636 | 0.996 | 0.721 | 0.837 | 0.78 |
